This is an account of results in patent publication US11014908B2, “Chemical compounds” (Pfizer Inc., priority 2018, dated 2021).

For orientation: Kd means a measure of binding affinity in units of concentration. Read a low Kd as higher affinity. As usually defined, the IC50 is the concentration needed to halve the response being measured. Low readings indicate higher potency, high ones lower potency.

SMILES strings stand for the structures.

The target in series [1] is T1, purified sickle cell hemoglobin (HbS) (Homo sapiens, UniProt P68871+P69905, E7V).
T1 construct: HbS was obtained from the blood of homozygous S/S patients; from tissue; host or cells: red blood cells of homozygous S/S patients
The series is described as follows: Binding affinity to purified HbS by Surface Plasmon Resonance (SPR). Conditions: crosslinked biotinylated HbS, 1:1 binding model. In short, it runs like this:
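Patient-derived HbS, purified and crosslinked between beta subunits (Lys82-Lys82), biotinylated and captured on streptavidin sensor at 4000–5000 RU. Running buffer 100 mM potassium phosphate pH 7.5, 1 mM EDTA, 0.1 mg/mL BSA, 1% DMSO; 2 min association, ≥5 min dissociation, ≥4 concentrations; Kd from 1:1 model fit.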

In the next series the target is T2, HbS (Homo sapiens, UniProt P68871+P69905, E7V).
T2 construct: HbS was obtained from the blood of homozygous S/S patients; from tissue; host or cells: red blood cells of homozygous S/S patients
The series is described as follows: 'R'-'T' assay (conversion of oxy HbS to deoxy HbS under deoxygenating conditions). It counts as biochemical. Conditions: 50% inhibition of HbS 'R'-'T' conversion; 3 uM HbS, <1% O2. In short, it runs like this: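 Oxy HbS diluted to 3 µM in 100 mM potassium phosphate pH 7.4, incubated 1 h at room temperature with compound, then held under <1% O2 for 2 h. Conversion followed by background-corrected 415/430 nm absorbance ratio at 0, 90 and 120 min; percent effect normalized to tucaresol, IC50 from concentration series.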

A further series deals with T3, Hb in human whole blood (Homo sapiens, UniProt P68871+P69905).
T3 construct: measured in human, dog, and mouse whole blood; from tissue; host or cells: human whole blood
Briefly: Whole blood oxygen affinity assay (Hemox analyzer), human blood. Conditions: 1 mM compound, 1 hour at 25 C, relative to DMSO. From the text:
Whole Blood Oxygen Affinity Assay
Oxygen affinity is a marker of the ability of Hb to bind and release oxygen in solution. It can be determined in whole blood by measuring the percentage of oxygenated and deoxygenated Hb present at a given oxygen concentration. Oxygen affinity is expressed as the p50, the partial pressure of oxygen at which 50% of the Hb in solution has oxygen bound, or the p20, the partial pressure of oxygen at which 20% of the Hb in solution has oxygen bound.
To determine the effects of compounds of the invention on oxygen affinity the p50 and p20 were measured in human, dog, and mouse whole blood using a Hemeox Analyzer (TCS Scientific). The blood was spiked with a compound of the invention to a concentration of 1 mM and incubated for 1 hour at 25 C with constant rotation. A concentration of 1 mM of compound was selected to approximate 20% hemoglobin occupancy in whole blood. Controls with the same concentration of DMSO, but no compound were incubated in the same way at the same time. Following incubation, samples were immediately assayed for oxygen affinity using the Hemox analyzer. Fifty μL of blood sample was diluted into 5 mL of hemox buffer (TCS Scientific), which had been pre-incubated to 37 C. Following dilution, samples were loaded into the analysis chamber, and fully oxygenated using compressed air. Once samples had reached an pO2 of >150 torr, the measurement was initiated by switching to N2, and the percent oxyhemoglobin as a function of partial pressure was recorded. The p20 and p50 of each sample were recorded from the instrument readout. Data are reported as the percent (%) change relative to DMSO according to the following calculations: […]

Series [2] can be described thus: Single dose study in sickle Townes mice: exposure in whole blood. In kind it is in vivo. Conditions: male, Townes (sickle cell disease model), mouse, SCD mice, n=3. The protocol:
In Vivo Studies Mouse Model
The effect of the compounds of the invention was evaluated in-male sickle Townes mice in a single dose study. Compounds of the invention were administered in amounts set out in Tables 7, 8 and 9 that follow by oral gavage. Control mice received vehicle. Blood (50 μL) was drawn at 0.5 h, 1 h, 4 h, 7 h, 10 h, and 24 h. To measure exposure in whole blood, 20 μL sample was used. Blood drawn at 0.5 h was also evaluated for cell sickling.

For a further series, the system named is Townes SCD mice. The series is described as follows: Chronic dosing study (BID, 15 days) in Townes SCD mice. In kind it is in vivo, mouse. Particulars: 100 mg/kg BID for 15 days, n=4-5, Townes SCD mice, vs vehicle. The procedure:
Following 15 days of dosing, blood samples were collected from all animals to run in the Hemeox analyzer to generate oxygen affinity curves, complete blood analysis was performed using Idexx hematology Analyzer, and cell sickling assessed as described before. Soluble Vascular Adhesion Molecule 1 levels (sVCAM1) were assessed by Enzyme linked immunosorbent assay (ELISA) from R&D systems. Results are presented below in Tables 7, 8 and 9.

In the case of `C[C@H](Oc1cc2cc(C(N)=O)ccc2nc1N)c1cc2[nH]ncc2cc1-n1cccn1` [Example 61, 2-amino-3-{(1S)-1-[5-(1H-pyrazol-1-yl)-1H-indazol-6-yl]ethoxy}quinoline-6-carboxamide], the Kd in series [1] amounted to 0.036 µM. The same molecule gave an IC50 on HbS of 5.45 µM. Moreover, at Hb in human whole blood, the “Reduction in p20 (%) Human” value came out at 14 ± 8% and the “Reduction in p50 (%) Human” value was 1 ± 6%.

For `C[C@H](Oc1cc2cc(F)ccc2nc1N)c1nc(C(=O)O)c(F)cc1-n1cccn1` [Example 39, 6-{(1S)-1-[(2-amino-6-fluoroquinolin-3-yl)oxy]ethyl}-3-fluoro-5-(1H-pyrazol-1-yl)pyridine-2-carboxylic Acid], in series [1], binding was put at a Kd of 0.464 µM. For the same molecule, the IC50 against HbS was 6.22 µM.

In series [1], `C[C@H](Oc1cc2cc(F)c(Cl)cc2nc1N)c1nc(C(N)=O)ccc1-n1cccn1` [Example 32, 6-{(1S)-1-[(2-amino-7-chloro-6-fluoroquinolin-3-yl)oxy]ethyl}-5-(1H-pyrazol-1-yl)pyridine-2-carboxamide] showed a Kd of 0.057 µM. The molecule further came in with an IC50 against HbS of 4.75 µM.

In turn, `C[C@H](Oc1cc2c(F)ccc(F)c2nc1N)c1ncc(F)cc1-n1cccn1` [Example 43, 5,8-difluoro-3-{(1S)-1-[5-fluoro-3-(1H-pyrazol-1-yl)pyridin-2-yl]ethoxy}quinolin-2-amine] had a Kd in series [1] of 0.02 µM. The molecule also had an IC50 at HbS of 4.63 µM.

`Cc1cc2nc(N)c(O[C@@H](C)c3ncc(F)cc3-n3cccn3)cc2cn1` [Example 36, 3-{(1S)-1-[5-fluoro-3-(1H-pyrazol-1-yl)pyridin-2-yl]ethoxy}-7-methyl-1,6-naphthyridin-2-amine]: binding in series [1] was characterised by a dissociation constant (Kd) of 0.16 µM. On HbS, this molecule returned an IC50 of 7.71 µM.

Molecule `C[C@H](Oc1cc2cc([C@@H](C)O)ccc2nc1N)c1nc(O)ccc1-n1cccn1` [Example 51, 6-[(1S)-1-({2-amino-6-[(1R)-1-hydroxyethyl]quinolin-3-yl}oxy)ethyl]-5-(1H-pyrazol-1-yl)pyridin-2-ol] came in with a Kd in series [1] of 6.88 µM. For the same molecule, half-maximal inhibition at HbS (IC50) required 52.1 µM.

Molecule `C[C@H](Oc1cc2cc(C#N)ccc2nc1N)c1ncc(F)cc1-n1cccn1` [Example 26, 2-amino-3-{(1S)-1-[5-fluoro-3-(1H-pyrazol-1-yl)pyridin-2-yl]ethoxy}quinoline-6-carbonitrile] had a Kd in series [1] of 0.138 µM. At HbS, this molecule registered an IC50 of 4.91 µM.

Take `C[C@H](Oc1cc2cc(F)c(Cl)cc2nc1N)c1cc2[nH]ncc2cc1-n1cccn1` [Example 60, 7-chloro-6-fluoro-3-{(1S)-1-[5-(1H-pyrazol-1-yl)-1H-indazol-6-yl]ethoxy}quinolin-2-amine]: the affinity in series [1], expressed as Kd, was 0.055 µM. At HbS, the half-maximal inhibitory concentration (IC50) turned out to be 4.11 µM.

Consider `C[C@H](Oc1cc2cc(F)ccc2nc1N)c1cc(C(=O)O)ccc1-n1cccn1` [Example 4, 3-{(1S)-1-[(2-amino-6-fluoroquinolin-3-yl)oxy]ethyl}-4-(1H-pyrazol-1-yl)benzoic Acid], for which the affinity in series [1], expressed as Kd, was 0.1 µM. Further, the IC50 on HbS is 4.92 µM. At Hb in human whole blood, the “Reduction in p20 (%) Human” value is given as 40 ± 4% and the “Reduction in p50 (%) Human” value worked out at 7 ± 3%.

With `Cc1cc2nc(N)c(O[C@@H](C)c3nc(O)ccc3-n3cccn3)cc2cn1` [Example 46, 6-{(1S)-1-[(2-amino-7-methyl-1,6-naphthyridin-3-yl)oxy]ethyl}-5-(1H-pyrazol-1-yl)pyridin-2-ol], the Kd in series [1] was 0.102 µM. Besides, the IC50 at HbS worked out at 5.22 µM.

In series [1], `C[C@H](Oc1cc2cc(C(N)=O)ccc2nc1N)c1ncc(F)cc1-n1cccn1` [Example 27, 2-amino-3-{(1S)-1-[5-fluoro-3-(1H-pyrazol-1-yl)pyridin-2-yl]ethoxy}quinoline-6-carboxamide] had a Kd of 0.183 µM. On HbS, this molecule displayed an IC50 of 5.36 µM. Moreover, on Hb in human whole blood, the “Reduction in p20 (%) Human” value was determined as 70 ± 4% and the “Reduction in p50 (%) Human” value came to 26 ± 1%. Also, in series [2] (single dose 5 mg/kg oral gavage), the concentration at 0.5 h was found to be 7.4 µM. In series [2] (single dose 50 mg/kg oral gavage), this molecule displayed a concentration at 0.5 h of 208 µM. Also, in the series with Townes SCD mice, the “Hb, Change (increase)” value stood at 54.4 ± 8.7% increase; the “Hematocrit, Change (increase)” value worked out at 42.0 ± 12.7% increase; the “RBC sickling, Change (decrease)” value worked out at 19.2 ± 5.4% decrease; the “RBCs, Change (increase)” value turned out to be 51.9 ± 8.3% increase. In addition, in the series on Townes SCD mice, the “Reticulocytes, Change (decrease)” value worked out at 18.4 ± 5.5% decrease; the “p20, Change (decrease)” value is reported as 10.8 ± 3.8% decrease; the “p50, Change (decrease)” value came out at 7.89 ± 3.36% decrease.

`C[C@H](Oc1cc2ncccc2nc1N)c1nc(O)ccc1-n1cccn1` [Example 47, 6-{(1S)-1-[(2-amino-1,5-naphthyridin-3-yl)oxy]ethyl}-5-(1H-pyrazol-1-yl)pyridin-2-ol]: the Kd in series [1] turned out to be 0.384 µM. This molecule also registered an IC50 against HbS of 6.32 µM.

Turning to `C[C@H](Oc1cc2cc(F)cc(F)c2nc1N)c1[nH]c(=O)ccc1-n1cccn1` [Example 53, 6-{(1S)-1-[(2-amino-6,8-difluoroquinolin-3-yl)oxy]ethyl}-5-(1H-pyrazol-1-yl)pyridin-2-ol], in series [1], the Kd was found to be 0.016 µM. Moreover, at HbS, the half-inhibitory concentration (IC50) came to 4.25 µM.

Molecule `C[C@H](Oc1cc2cc(F)c(Cl)cc2nc1N)c1ncccc1-n1cccn1` [Example 29, 7-chloro-6-fluoro-3-{(1S)-1-[3-(1H-pyrazol-1-yl)pyridin-2-yl]ethoxy}quinolin-2-amine] registered a Kd in series [1] of 0.067 µM. This molecule also had an IC50 against HbS of 4.58 µM.

Consider `COC(=O)c1ccc(-n2cccn2)c([C@H](C)Oc2cc3cc(F)ccc3nc2N)c1` [Example 6, methyl 3-{(1S)-1-[(2-amino-6-fluoroquinolin-3-yl)oxy]ethyl}-4-(1H-pyrazol-1-yl)benzoate], for which the Kd in series [1] turned out to be 0.035 µM. On HbS, this molecule gave an IC50 of 4.48 µM.

Molecule `Cc1cc2nc(N)c(O[C@@H](C)c3cc(C(=O)O)ccc3-n3cccn3)cc2cn1` [Example 22, 3-{(1S)-1-[(2-amino-7-methyl-1,6-naphthyridin-3-yl)oxy]ethyl}-4-(1H-pyrazol-1-yl)benzoic Acid] registered an equilibrium dissociation constant (Kd) in series [1] of 0.172 µM. On HbS, this molecule gave an IC50 of 5.4 µM.

With `C[C@H](Oc1cc2cc(F)c(Cl)cc2nc1N)c1cc(C(N)=O)c(F)cc1-n1cccn1` [Example 2, 5-{(1S)-1-[(2-amino-7-chloro-6-fluoroquinolin-3-yl)oxy]ethyl}-2-fluoro-4-(1H-pyrazol-1-yl)benzamide], binding in series [1] was put at a Kd of 0.021 µM. Besides, at HbS, half-maximal inhibition (IC50) required 6.82 µM.

Consider `C[C@H](Oc1cc2cc(F)ccc2nc1N)c1cc2[nH]ncc2cc1-n1cccn1` (single isomer, unassigned) [Example 59], for which, in series [1], the Kd amounted to 0.047 µM. Besides, the IC50 against HbS stood at 4.5 µM.

Molecule `C[C@H](Oc1cc2ncc(F)cc2nc1N)c1nc(O)ccc1-n1cccn1` [Example 48, 6-{(1S)-1-[(2-amino-7-fluoro-1,5-naphthyridin-3-yl)oxy]ethyl}-5-(1H-pyrazol-1-yl)pyridin-2-ol] showed a Kd in series [1] of 0.253 µM. Also, at HbS, 4.71 µM corresponded to half-maximal inhibition (IC50).

Regarding `C[C@H](Oc1cc2cc(C(N)=O)ccc2nc1N)c1nc(CO)ccc1-n1cccn1` [Example 55, 2-amino-3-{(1S)-1-[6-(hydroxymethyl)-3-(1H-pyrazol-1-yl)pyridin-2-yl]ethoxy}quinoline-6-carboxamide], the Kd in series [1] came out at 0.406 µM. For the same molecule, at HbS, the midpoint of inhibition, the IC50, lay at 5.71 µM.
